Measured values reported in US5217986A, “Anti-allergy agent” (Harbor Branch Oceanographic Institution, Inc., priority 1992, dated 1993).

Tests used:
[1] = system: guinea pig ileum; experiment: Guinea pig ileum assay (inhibition of Rα-methylhistamine effect on electrical field stimulated contractions)
Description: Male guinea pigs (450-500 g) were sacrificed by cervical dislocation. Portions of the ileum (20-40 cm) were removed and placed in Tyrodes solution (NaCl, 8.0; KCl, 0.2; MgCl2.6H2 O, 0.2; CaCl2, 0.13; NaH2 PO4, 0.06; dextrose, 1.0; NaHCO3, 1.0 g/l). The ilea were cut into 2.5 cm segments, mounted between platinum wire coaxial electrodes and placed in water-jacketed organ baths containing 25 ml of the Tyrodes solution. Bath fluid temperature was maintained at 37° C. and aerated with 95% 02-5% CO2. The muscles were suspended from isometric force transducers (Grass FT03C) under 0.3 g resting tension. Contractions were amplified on a Buxco tension monitor and recorded on a Harvard polygraph. […] Once this 80% response was determined it was evoked every 60 seconds throughout the experiment. […]
Rα-methylhistamine inhibits the electrical field stimulated contractions of the guinea pig ileum and was used as the H3 agonist reference standard. H3 agonists were studied for their ability to inhibit the electrical field stimulated contractions and their activity was expressed as a percentage of the maximum Rα-methylhistamine effect. […]
Relative potency for agonists was determined from the pD2 (Furchgott, R. F., The pharmacology of Vascular Smooth Muscle. Pharm. Rev. 7, 183, 1955.) calculations. Relative potency for antagonists was determined from pA2 calculations. […]

[2] = target: T1, H3 receptor (Cavia porcellus, UniProt Q9JI35); experiment: H3 receptor binding assay ([3H]R-α-methylhistamine, guinea pig brain membranes)
T1 construct: The source of the H3 receptors in this experiment was guinea pig brain; from tissue; host or cells: guinea pig brain membranes
T1 sequence (Q9JI35 whole entry): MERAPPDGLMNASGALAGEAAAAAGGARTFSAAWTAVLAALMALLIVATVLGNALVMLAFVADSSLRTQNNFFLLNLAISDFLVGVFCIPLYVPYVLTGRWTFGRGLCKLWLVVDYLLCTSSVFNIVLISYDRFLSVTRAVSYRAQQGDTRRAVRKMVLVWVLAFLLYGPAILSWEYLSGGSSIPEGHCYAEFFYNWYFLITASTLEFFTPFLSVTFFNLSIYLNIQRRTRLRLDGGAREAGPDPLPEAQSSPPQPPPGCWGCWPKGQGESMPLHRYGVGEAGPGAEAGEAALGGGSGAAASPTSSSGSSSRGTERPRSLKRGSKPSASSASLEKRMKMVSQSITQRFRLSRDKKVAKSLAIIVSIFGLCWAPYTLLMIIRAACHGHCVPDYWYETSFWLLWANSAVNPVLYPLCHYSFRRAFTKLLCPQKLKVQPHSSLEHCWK
Description: The source of the H3 receptors in this experiment was guinea pig brain. The animals used weighed 400-600 g. The tissue was homogenized using a Polytron in a solution of 50 mM Tris, pH 7.5. The final concentration of tissue in the homogenization buffer was 10% w/v. The homogenates were centrifuged at 1000× g for 10 minutes in order to remove clumps of tissue and debris. The resulting supermatants were then centrifuged at 50,000× g for 20 minutes in order to sediment the membranes, which were next washed 3 times in homogenization buffer (50,000× g for 20 minutes each). The membranes were frozen and stored at -70° C. until needed.
The compound to be tested was dissolved in DMSO (dimethyl sulfoxide) and then diluted into the binding buffer (50 mM Tris, pH 7.5) such that the final concentration was 2 μg/mL with 0.1% DMSO. Membranes were then added (400 μg of protein) to the reaction tubes. The reaction was started by the addition of 3 nM [^3 H]R-α-methylhistamine (8.8 Ci/mmol) and incubated at 30° C. for 30 minutes. Bound ligand was separated from unbound ligand by filtration, and the amount of radioactive ligand bound to the membranes was quantitated by liquid scintillation spectrometry. The incubation was performed in duplicate and the standard error was less than 10%.

Compound: COc1ccc(CC(=NO)C(=O)NCCc2c[nH]cn2)cc1Br [verongamine]
- Guinea Pig Ileum ([1]; @ 1 μg/mL, 1 μM chlorpheniramine present, 37° C.): antagonist
- activity on guinea pig ileum ([1]; no concentration stated): H3 antagonist
- IC50 ([2]; guinea pig brain membranes, 3 nM [3H]R-α-methylhistamine, 30° C., 30 minutes, pH 7.5): 498 nM
- activity in an H3 receptor assay ([2]; no concentration stated): active
